Measured values as given in US20250129101A1, “Compound, Pharmaceutical Composition Comprising the Same and Method for Treating Cancer Using the Same” (NATIONAL TSING HUA UNIVERSITY, priority 2023, published 2025).
Where two headings read alike, the source gives them in different places.

Columns and labels:
[1] = target: T1, KIF2C (Homo sapiens, UniProt Q99661); experiment: In vitro validation: KIF2C kinesin activity, malachite green-based phosphate colorimetric assay; type: biochemical; details: concentration that inhibits 50% of KIF2C activity
T1 construct: KIF2C (216-598 a.a.); 6xHis (C); made in house; host or cells: E. coli BL21 (DE3), pET-28a
Method in brief: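 KIF2C sN+M construct (aa 216-598, C-terminal 6×His, E. coli-expressed) ATPase activity with microtubules from porcine brain tubulin or HEK293 (293Fs) cells in BRB80 (80 mM PIPES pH 6.8, 1 mM GTP, 10% DMSO), 37° C for 2 hr. Released phosphate detected by malachite green reagent, 10 min, A650.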

[2] = system: MDA-MB-231 cells; experiment: Cell validation: cytotoxicity in MDA-MB-231 cells (CellTiter-Glo); type: cell-based; details: for Cell validation (IC50) / IC50: cytotoxicity in MDA-MB-231 cells; for IC50: Homo sapiens
Method in brief: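 MDA-MB-231 cells were seeded at 2000 cells/well and exposed to compounds for the specified number of days. Medium was then replaced with a 1:1 CellTiter-Glo reagent/serum-supplemented DMEM mix for 10 min, and viability was read as luminescence, proportional to living cell number.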

[3] = system: 4T1 R4 cells; experiment: Cell viability assay, 4T1 R4 cells; type: cell-based, mouse; details: for CI (combination index), MTA with 7S9: 2 μM 7S9, Chou and Talalay method; for IC50: 72 hr; for Fold change in chemosensitivity (IC50 single / 7S9 combination): 2 μM 7S9
Description: (§1) MCF-7, MDA-MB-231, MDA-MB-468, Hs578T, 4T1, and HeLa cell lines stably expressing H2B-mCherry and eGFP-tubulin (kindly provided by Dr. Anthony A. Hyman, Max-Planck-Institute for Molecular Cell Biology and Genetics, Dresden, Germany) were cultured in high-glucose Dulbecco's Modified Eagle Medium (DMEM). SK-BR-3 cells were cultured in McCoy's Modified 5a Medium. Hs578T cells were cultured in high-glucose DMEM supplemented with an additional 0.01 mg/mL bovine insulin. […] All mentioned media were supplemented with 10% fetal bovine serum (Gibco) and 1% Penicillin/Streptomycin (Corning), and cells were incubated at 37° C. in a humidified atmosphere containing 5% CO2. HEK293 cells were cultured in HE300 medium (GMEP incorporated, Japan) and maintained in suspension culture with 125 rpm and 8% CO2.
(§2) The cancer cells were cultured in a 96-well plate at a confluence of 1000-2000 cells/well with indicated drugs for specific days. When the time was up, the culture medium in the plate was aspirated and replaced with a prepared CellTiter-Glo reagent/DMEM mixture (1:1 mix of CellTiter-Glo reagent and serum-supplemented DMEM). After incubation for 10 min, the luminescence (proportional to the number of living cells) was measured with an ELISA plate reader to determine the cell viability.

[4] = system: 4T1 R8 cells; experiment: Cell viability assay, 4T1 R8 cells; type: cell-based, mouse; details: for CI (combination index), MTA with 7S9: 2 μM 7S9, Chou and Talalay method; for IC50: 72 hr; for Fold change in chemosensitivity (IC50 single / 7S9 combination): 2 μM 7S9
Description: as §1, §2

[5] = Mus musculus, drug alone, read-out: IC50 (nM), Single
[6] = MTA with 2 μM 7S9, read-out: IC50 (nM), Combination

T1 sequence (Q99661 216-598): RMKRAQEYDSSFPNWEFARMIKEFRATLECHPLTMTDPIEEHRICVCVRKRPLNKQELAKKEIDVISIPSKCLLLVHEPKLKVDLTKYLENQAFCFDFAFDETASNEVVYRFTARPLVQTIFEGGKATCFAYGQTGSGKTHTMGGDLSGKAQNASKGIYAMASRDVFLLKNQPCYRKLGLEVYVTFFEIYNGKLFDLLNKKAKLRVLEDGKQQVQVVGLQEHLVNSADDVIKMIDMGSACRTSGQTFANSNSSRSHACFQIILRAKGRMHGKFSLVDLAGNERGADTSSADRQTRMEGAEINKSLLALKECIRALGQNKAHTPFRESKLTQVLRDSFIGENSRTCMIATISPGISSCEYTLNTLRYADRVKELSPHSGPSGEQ

EC50 [1] [µM] | Compound | IC50 [2] [µM] | other results
< 50 | CCOC(=O)C1=C(C)N=c2s/c(=C\c3ccc(OCC(=O)N4CCC(N5CCN(C)CC5)CC4)cc3)c(=O)n2C1c1ccc(Cl)cc1 (stereo not drawn) [50S0 (99)] |  | Cell validation (IC50) [2]: + + + +
50 to 100 | CC1=C(C(=O)OC(C)C)C(c2ccc(N(C)C)cc2)n2c(s/c(=C\c3ccc(OCC(=O)O)cc3)c2=O)=N1 (stereo not drawn) [51S0 (55), (Z)-2-(4-((5-(4-(dimethylamino)phenyl)-6-(isopropoxycarbonyl)-7-methyl-3-oxo-5H-thiazolo[3,2-a]pyrimidin-2(3H)-ylidene)methyl)phenoxy)acetic acid] | > 50 | 
> 100 | CC1=C(C(=O)OC(C)C)C(c2ccc(-n3ccnc3)cc2)n2c(s/c(=C\c3ccc(OCC(=O)O)cc3)c2=O)=N1 (stereo not drawn) [52S0 (45), (Z)-2-(4-((5-(4-(1H-imidazol-1-yl)phenyl)-6-(isopropoxycarbonyl)-7-methyl-3-oxo-5H-thiazolo[3,2-a]pyrimidin-2(3H)-ylidene)methyl)phenoxy)acetic acid] | > 50 | 
50 to 100 | CCOC(=O)C1=C(C)N=c2s/c(=C\c3ccc(OCC(=O)O)cc3)c(=O)n2[C@@H]1c1ccc(Cl)cc1 [54S0 (130)] | > 50 | 
> 100 | CCOC(=O)C1=C(C)N=c2s/c(=C\c3ccc(OCC(=O)O)cc3)c(=O)n2[C@H]1c1ccc(Cl)cc1 [55S0 (131)] | > 50 | 
> 100 | CC1=C(C(=O)OC(C)C)C(c2ccc(Cl)cc2)n2c(s/c(=C\c3ccc(OCC(=O)NS(=O)(=O)C(F)(F)F)cc3)c2=O)=N1 (stereo not drawn) [56S0 (121), isopropyl (Z)-5-(4-chlorophenyl)-7-methyl-3-oxo-2-(4-(2-oxo-2-((trifluoromethyl)sulfonamido)ethoxy)benzylidene)-2,3-dihydro-5H-thiazolo[3,2-a]pyrimidine-6-carboxylate] | > 50 | 
50 to 100 | CCN1CCN(C(=O)COc2ccc(/C=c3\sc4n(c3=O)C(c3ccc(Cl)cc3)C(C(=O)OC(C)C)=C(C)N=4)cc2)CC1 (stereo not drawn) [Compound 13S0] |  | cytotoxicity on MDA-MB-231 cells (in words) ([2]; 72 hr): showed cytotoxicity; Cell validation (IC50) [2]: + +
> 100 | CC1=C(C(=O)OC(C)C)C(c2ccc(Cl)cc2)n2c(s/c(=C\c3ccc(OCC(=O)NC4CCN(C)CC4)cc3)c2=O)=N1 (stereo not drawn) [Compound 136] | > 50 | 
50 to 100 | CC1=C(C(=O)OC(C)C)C(c2ccc(Cl)cc2)n2c(s/c(=C\c3ccc(OCC(=O)NCC4CCN(C)CC4)cc3)c2=O)=N1 (stereo not drawn) [Compound 138] | 20 to 50 | 
50 to 100 | CC1=C(C(=O)OC(C)C)C(c2ccc(Cl)cc2)n2c(s/c(=C\c3ccc(OCC(=O)N4CCC(N(C)C)CC4)cc3)c2=O)=N1 (stereo not drawn) [Compound 139] | 20 to 50 | 
50 to 100 | CNc1ccc(C2C(C(=O)OC(C)C)=C(C)N=c3s/c(=C\c4ccc(OCC(=O)N5CCN(C)CC5)cc4)c(=O)n32)cc1 (stereo not drawn) [Compound 140] | 20 to 50 | 
< 50 | CC1=C(C(=O)OC(C)C)C(c2ccc(C(F)(F)F)cc2)n2c(s/c(=C\c3ccc(OCC(=O)N4CCN(C)CC4)cc3)c2=O)=N1 (stereo not drawn) [Compound 141] | 20 to 50 | 
50 to 100 | CCOC(=O)C1=C(C)N=c2s/c(=C\c3ccc(OCC(=O)N4CCN(C)CC4)cc3)c(=O)n2C1c1ccc(N(C)C)cc1 (stereo not drawn) [Compound 143] | 20 to 50 | 
50 to 100 | CC1=C(C(=O)OC(C)(C)C)C(c2ccc(N(C)C)cc2)n2c(s/c(=C\c3ccc(OCC(=O)N4CCN(C)CC4)cc3)c2=O)=N1 (stereo not drawn) [Compound 144] | 20 to 50 | 
< 50 | CCOC(=O)C1=C(C)N=c2s/c(=C\c3ccc(OCC(=O)N4CCN(CC)CC4)cc3)c(=O)n2C1c1ccc(N(C)C)cc1 (stereo not drawn) [Compound 146] | 20 to 50 | 
< 50 | CCN1CCN(C(=O)COc2ccc(/C=c3\sc4n(c3=O)C(c3ccc(N(C)C)cc3)C(C(=O)OC(C)C)=C(C)N=4)cc2)CC1 (stereo not drawn) [Compound 147] |  | Cell validation (IC50) [2]: + +
< 50 | CCN1CCN(C(=O)COc2ccc(/C=c3\sc4n(c3=O)C(c3ccc(N(C)C)cc3)C(C(=O)OC(C)(C)C)=C(C)N=4)cc2)CC1 (stereo not drawn) [Compound 148] |  | Cell validation (IC50) [2]: + +
< 50 | CC1=C(C(=O)O)C(c2ccc(N(C)C)cc2)n2c(s/c(=C\c3ccc(OCC(=O)N4CCC(N5CCN(C)CC5)CC4)cc3)c2=O)=N1 (stereo not drawn) [Compound 149] | > 50 | 
50 to 100 | CCOC(=O)C1=C(C)N=c2s/c(=C\c3ccc(OCC(=O)N4CCC(N5CCN(C)CC5)CC4)cc3)c(=O)n2C1c1ccc(N(C)C)cc1 (stereo not drawn) [Compound 150] | 20 to 50 | 
50 to 100 | CC1=C(C(=O)OC(C)(C)C)C(c2ccc(N(C)C)cc2)n2c(s/c(=C\c3ccc(OCC(=O)N4CCC(N5CCN(C)CC5)CC4)cc3)c2=O)=N1 (stereo not drawn) [Compound 152] | 20 to 50 | 
 | CC(=O)O[C@@]12CO[C@@H]1C[C@H](O)[C@@]1(C)C(=O)[C@H](O)C3=C(C)[C@@H](OC(=O)[C@H](O)[C@@H](NC(=O)OC(C)(C)C)c4ccccc4)C[C@@](O)([C@@H](OC(=O)c4ccccc4)[C@H]21)C3(C)C [Docetaxel, docetaxel] |  | CI (combination index), MTA with 7S9 [3]: 0.45; IC50 [3, 5]: 358 nM; CI (combination index), MTA with 7S9 [4]: 0.50; IC50 [4, 5]: 208 nM
 | C=C1C[C@@H]2CC[C@@]34C[C@H]5O[C@H]6[C@@H](O3)[C@H]3O[C@H](CC[C@@H]3O[C@H]6[C@H]5O4)CC(=O)C[C@@H]3[C@@H](OC)[C@@H](C[C@H](O)CN)O[C@H]3C[C@H]3O[C@@H](CC[C@@H]1O2)C[C@@H](C)C3=C [Eribulin, eribulin] |  | Fold change in chemosensitivity (IC50 single / 7S9 combination) [3]: 30; CI (combination index), MTA with 7S9 [3]: 0.48; IC50 [3, 6]: 14.5 nM; IC50 [3, 5]: 442 nM; Fold change in chemosensitivity (IC50 single / 7S9 combination) [4]: 21; CI (combination index), MTA with 7S9 [4]: 0.54; IC50 [4, 6]: 13.6 nM; IC50 [4, 5]: 284 nM
 | C/C(=C\c1csc(C)n1)[C@@H]1C[C@@H]2O[C@]2(C)CCC[C@H](C)[C@H](O)[C@@H](C)C(=O)C(C)(C)[C@@H](O)CC(=O)N1 [Ixabepilone, ixabepilone] |  | IC50 [3, 5]: 358 nM; IC50 [4, 5]: 234 nM
 | CCC1=C[C@@H]2CN(C1)Cc1c([nH]c3ccccc13)[C@@](C(=O)OC)(c1cc3c(cc1OC)N(C)[C@H]1[C@@](O)(C(=O)OC)[C@H](OC(C)=O)[C@]4(CC)C=CCN5CC[C@]31[C@@H]54)C2 [Vinorelbine, vinorelbine] |  | Fold change in chemosensitivity (IC50 single / 7S9 combination) [3]: 69; CI (combination index), MTA with 7S9 [3]: 0.46; IC50 [3, 5]: 159 nM; Fold change in chemosensitivity (IC50 single / 7S9 combination) [4]: 43; CI (combination index), MTA with 7S9 [4]: 0.51; IC50 [4, 5]: 104 nM

Compound | EC50 [1] [µM] | IC50 [2] [µM] | other results
CC1=C(C(=O)OC(C)(C)C)C(c2ccc(Cl)cc2)n2c(s/c(=C\c3ccc(OCC(=O)O)cc3)c2=O)=N1 (stereo not drawn) [53S0 (80), (Z)-2-(4-((6-(tert-butoxycarbonyl)-5-(4-chlorophenyl)-7-methyl-3-oxo-5H-thiazolo[3,2-a]pyrimidin-2(3H)-ylidene)methyl)phenoxy)acetic acid] | 50 to 100 | > 50 | 
CC1=C(C(=O)O)C(c2ccc(Cl)cc2)n2c(s/c(=C\c3ccc(OCC(=O)N4CCN(C)CC4)cc3)c2=O)=N1 (stereo not drawn) [Compound 137] | < 50 | > 50 | 
CC1=C(C(=O)O)C(c2ccc(N(C)C)cc2)n2c(s/c(=C\c3ccc(OCC(=O)N4CCN(C)CC4)cc3)c2=O)=N1 (stereo not drawn) [Compound 142] | 50 to 100 | > 50 | 
CCN1CCN(C(=O)COc2ccc(/C=c3\sc4n(c3=O)C(c3ccc(N(C)C)cc3)C(C(=O)O)=C(C)N=4)cc2)CC1 (stereo not drawn) [Compound 145] | < 50 | > 50 | 
